From ChEMBL document CHEMBL6134831 (Eur J Med Chem, 2025)
Activity calls are given as the source filed them. The rule behind the calls is not given here.

Tests used:
[1] = system: HepaRG; test: Cytotoxicity against human HepaRG cells assessed as mortality rate at 25 uM incubated for 30 mins by LDH assay relative to control; format: functional; settings: 0.5 h
[2] = system: HepaRG; test: Cytotoxicity against human HepaRG cells assessed as mortality rate at 250 uM incubated for 30 mins by LDH assay relative to control; format: functional; settings: 0.5 h
[3] = system: Mus musculus; test: Antihyperlipidemic activity against Triton WR-1339 induced hyperlipidemic male Swiss albino mouse model assessed as total cholesterol level in mouse blood at 13 mg/kg, po pre-treated with compound for 6 days followed by triton WR-1339 induction and measured after 24 hrs (reference value: 426.3 +/- 2 mg/dL); format: functional; settings: time 7 day
[4] = system: Mus musculus; test: Antihyperlipidemic activity against Triton WR-1339 induced hyperlipidemic male Swiss albino mouse model assessed as HDL level in mouse blood at 13 mg/kg, po pre-treated with compound for 6 days followed by triton WR-1339 induction and measured after 24 hrs (reference value: 97.4 +/- 1.2 mg/dL); format: functional; settings: time 7 day
[5] = system: Mus musculus; test: Antihyperlipidemic activity against Triton WR-1339 induced hyperlipidemic male Swiss albino mouse model assessed as LDL level in mouse blood at 13 mg/kg, po pre-treated with compound for 6 days followed by triton WR-1339 induction and measured after 24 hrs (reference value: 231.9 +/- 0.7 mg/dL); format: functional; settings: time 7 day
[6] = system: Mus musculus; test: Antihyperlipidemic activity against Triton WR-1339 induced hyperlipidemic male Swiss albino mouse model assessed as VLDL level in mouse blood at 13 mg/kg, po pre-treated with compound for 6 days followed by triton WR-1339 induction and measured after 24 hrs (reference value: 97.1 +/- 1 mg/dL); format: functional; settings: time 7 day
[7] = system: Mus musculus; test: Antihyperlipidemic activity against Triton WR-1339 induced hyperlipidemic male Swiss albino mouse model assessed as TG level in mouse blood at 13 mg/kg, po pre-treated with compound for 6 days followed by triton WR-1339 induction and measured after 24 hrs (reference value: 485.3 +/- 4.8 mg/dL); format: functional; settings: time 7 day
[8] = system: Mus musculus; test: Antihyperglycemic activity against Triton WR-1339 induced hyperlipidemic male Swiss albino mouse model assessed as blood glucose level at 13 mg/kg, po pre-treated with compound for 6 days followed by triton WR-1339 induction and measured after 24 hrs by glucose meter analysis (reference value: 121.6 +/- 7.8); format: functional; settings: time 7 day
[9] = system: Mus musculus; test: Antihyperlipidemic activity in Triton WR-1339 induced hyperlipidemic male Swiss albino mouse model assessed as change in carotid artery endothelial cells at 13 mg/kg, po pre-treated with compound for 6 days followed by triton WR-1339 induction and measured after 24 hrs by H&E staining based analysis; format: functional, organism-based; settings: time 7.0 day
[10] = system: Mus musculus; test: (§1) Antihyperlipidemic activity in Triton WR-1339 induced hyperlipidemic male Swiss albino mouse model assessed as histopathological change in kidney at 13 mg/kg, po pre-treated with compound for 6 days followed by triton WR-1339 induction and measured after 24 hrs by H&E staining based analysis; format: functional, organism-based; settings: time 7.0 day
[11] = system: Mus musculus; test: as §1, with “amelioration of islet cell disruption” for “histopathological change in kidney”, “based microscopic” for “based”; format: functional, organism-based; settings: time 7.0 day

Molecule `CC(C)OC(=O)C(C)(C)Oc1ccc(C(=O)c2ccc(Cl)cc2)cc1` [FENOFIBRATE] has an Activity [1] of 12%, an Activity [2] of 18% and an Activity [3] of 135.7 mg/dL. It also gave an Activity [4] of 58.7 mg/dL, an Activity [5] of 54.4 mg/dL and an Activity [6] of 20.6 mg/dL. For the same molecule, the Activity [7] was 103 mg/dL, the Activity [8] was 75 mg/dL and the Activity [9] was “Active”. For the same molecule, the Activity [10] was “Active” and the Activity [11] was “Active”.
